{"source": "paper PMC10874388", "about": "“Cyclic peptides discriminate BCL-2 and its clinical mutants from BCL-XL by engaging a single-residue discrepancy” (Nature Communications, 2024)", "key": {"[1]": {"biological_target": "BCL-2 (chimeric human BCL-2)", "assay": "SPR binding assay, BCL-2", "settings": "affinity fitting, mean ± SD of three independent experiments, 25 °C", "text": "The DNA fragments encoding human BCL-XL ([…], with […] removed), BCL-w (residues 6–152), MCL-1 (residues 152–308) and BFL-1 (residues 1–151) as previously reported[18] were cloned into a pET-22b vector (Invitrogen), respectively. A chimeric human BCL-2 (including residues 1–50 and 92–207) was constructed, by removing the internal long loop (residues 51–91) and replacing its residues 35–50 with residues 33–48 of BCL-XL to solubilize the protein[14], and then it was cloned into a pET28a-Sumo vector (Invitrogen). All BCL-2 mutants (G101V, F104L, Y103D, D111A) were generated by mutagenic PCR, according to the QuikChange (Stratagene) protocol.\nSPR assays were performed using a Biacore T200 instrument in running buffer consisting 10 mM PBS, 50 μM EDTA and 0.05% Tween-20 at 25 °C. Biotinylated proteins were immobilized on a CAP sensor chip (Cytiva, 28920234). […] The binding affinities were quantified by the Biacore evaluation software using 1:1 binding model. The reproducibility of the assays was confirmed by performing replicate determinations."}, "Jurkat cells": {"tested_on": "Jurkat cells", "assay": "Cell viability assay (CellTiter-Glo), Jurkat", "assay_type": "cell-based", "in_short": "(§1)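 Compounds added in serum-free medium for 4 h (RS4:11: 6 h), then FBS brought to 10% and incubation continued to 24 h or 48 h total at 37 °C, 5% CO2. Viability by CellTiter-Glo 2.0 luminescence; IC50 calculated.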"}, "Daudi cells": {"tested_on": "Daudi cells", "assay": "Cell viability assay (CellTiter-Glo), Daudi", "assay_type": "cell-based", "settings": "for raw viability signal, replicates: Daudi", "in_short": "as §1"}}, "note": "Values joined by “and” are separate entries in the source; they are usually repeats but may differ in a detail not shown here. Equal entries are not always repeated."}
{"smiles": "O=C(c1cc(-c2cc3c(cc2C(=O)N2Cc4ccccc4C[C@H]2CN2CCOCC2)OCO3)n2c1CCCC2)N(c1ccccc1)c1ccc(O)cc1", "note": "[S55746]", "values": [{"measurement": "Kd", "setting": "[1]", "result": "0.006 ± 0.002", "unit": "µM"}, {"measurement": "raw viability signal, replicates", "setting": "Jurkat cells; 1.5625 uM", "result": "1714000 and 1704000 and 1684000 and 1696000 and 1705000 and 1721000"}, {"measurement": "raw viability signal, replicates", "setting": "Jurkat cells; 3.125 uM", "result": "1448000 and 1401000 and 1343000 and 1377000 and 1375000 and 1402000"}, {"measurement": "raw viability signal, replicates", "setting": "Jurkat cells; 6.25 uM", "result": "1130000 and 1065000 and 1037000 and 1061000 and 1063000 and 1084000"}, {"measurement": "raw viability signal, replicates", "setting": "Jurkat cells; 12.5 uM", "result": "892300 and 842800 and 825800 and 842200 and 844000 and 860800"}, {"measurement": "raw viability signal, replicates", "setting": "Jurkat cells; 25 uM", "result": "395000 and 492300 and 419200 and 469600 and 467400 and 468800"}, {"measurement": "raw viability signal, replicates", "setting": "Jurkat cells; 50 uM", "result": "146000 and 160200 and 184200 and 190000 and 211800 and 228200"}, {"measurement": "IC50", "setting": "Daudi cells; 48 h treatment, CellTiter-Glo", "result": "10 ± 0.4", "unit": "µM"}, {"measurement": "raw viability signal, replicates", "setting": "Daudi cells; 3.125 uM", "result": "1593 and 1426 and 1310 and 1450 and 1626 and 1878"}, {"measurement": "raw viability signal, replicates", "setting": "Daudi cells; 6.25 uM", "result": "1078 and 1072 and 931.3 and 1127 and 973.9 and 1033"}, {"measurement": "raw viability signal, replicates", "setting": "Daudi cells; 12.5 uM", "result": "455.5 and 506.4 and 780.1 and 751.1 and 919.0 and 638.7"}, {"measurement": "raw viability signal, replicates", "setting": "Daudi cells; 25 uM", "result": "431.3 and 645.0 and 475.8 and 693.5 and 515.7 and 555.5"}, {"measurement": "raw viability signal, replicates", "setting": "Daudi cells; 50 uM", "result": "362.9 and 364.8 and 354.3 and 237.1 and 424.9 and 407.4"}, {"measurement": "raw viability signal, replicates", "setting": "Daudi cells; 100 uM", "result": "330.6 and 360.1 and 410.7 and 529.9 and 565.2 and 706.1"}]}
